# Source: publication PMC6158019 (Cancer cell, 2018)
# Where two headings read alike, the source gives them in different places.
# Assays:
# [1] = system: RMS cell lines and primary cultures of O-PDX cells; assay: General drug screening; type: cell-based, human; settings: for in vitro activity in RMS O-PDX drug screening: primary cultures of RMS O-PDXs and cell lines
# [2] = system: RMS cell lines (RD cells); assay: Cell cycle; type: cell-based, human; settings: 1 μM AZD1775, 24 or 48 hr
# [3] = system: RMS orthotopic xenografts SJRHB000026_X1, SJRHB012_Y, SJRHB013757_X2, SJRHB013759_X1; type: in vivo, mouse; settings: single-agent groups
# [4] = abemaciclib, mice; ref Raub et al., 2015; cited from earlier work
# [5] = ref Patnaik et al., 2016, cited from earlier work
# [6] = mouse, in vivo
# [7] = Abemaciclib plasma and tumor PK in tumor-bearing mice; settings: female, athymic nude, mouse, po, 50 mg/kg
# RMS O-PDXs = settings: previous preclinical phase 2 studies; ref Stewart et al., 2017; cited from earlier work
# [8] = species not stated; cited from earlier work
# [9] = ref Goldman et al., 2013, cited from earlier work
# [10] = Preclinical phase 1 tolerability study; settings: GSP 10 mg/kg, AZD1775 60 mg/kg twice daily, in combination regimens
# [11] = Ganetespib plasma and tumor PK in tumor-bearing mice; type: in vivo, mouse; settings: for half-life: female, athymic nude, mouse, iv, 150 mg/kg
# in vivo [12] = settings: female, athymic nude
# [13] = mice, ref Parrish et al., 2015; cited from earlier work
# [14] = Palbociclib human plasma PK; type: in vivo; settings: patients, 125 mg PO QD, standard calculations
# [15] = ref palbociclib FDA NDA reviews, cited from earlier work
# [16] = cited from earlier work; for mean plasma CL/F: population PK
# in vivo [17] = settings: female, athymic nude, mouse, po, 0.1 mg/kg
# [18] = Trametinib human plasma PK; type: in vivo; settings: patients, standard calculations
smiles,measurement,setting,value
C=CCn1c(=O)c2cnc(Nc3ccc(N4CCN(C)CC4)cc3)nc2n1-c1cccc(C(C)(C)O)n1 [AZD1775],in vitro activity in RMS O-PDX drug screening,[1],significant in vitro activity
same,cell cycle and nuclear effects,[2],"G2/M phase arrest, mitotic catastrophe, and nuclear fragmentation"
same,overall survival compared with placebo,[3],not different from placebo
CCN1CCN(Cc2ccc(Nc3ncc(F)c(-c4cc(F)c5nc(C)n(C(C)C)c5c4)n3)nc2)CC1 [abemaciclib],"mean in vitro fraction unbound in the plasma (Fu,p)",[4],0.054
same,geometric mean total plasma AUCtau at steady state,[5]; 200 mg PO BID,3000 ng·h/mL
same,geometric mean trough concentration,[5]; 200 mg PO BID,197 ng/mL
same,maximum tolerated dose (MTD),"[5]; Phase 1, single agent, continuous",200 mg PO BID
same,rounded and recommended MED,"[6]; female, athymic nude",7.5-15 mg/kg PO BID
same,plasma AUC lower than that reported by Tate,"[6]; female, athymic nude, po, 50 mg/kg",~ 3.8 fold
same,murine equivalent dose (MED) providing a similar total plasma AUC,[6],14.4 mg/kg
same,half-life,[7]; plasma,5.2 h
same,half-life,[7]; tumor,5.98 h
CC(C)C[C@H](NC(=O)[C@H](Cc1ccccc1)NC(=O)c1cnccn1)B(O)O [bortezomib],efficacy in vivo,RMS O-PDXs,failed to show efficacy in vivo
CC(C)c1cc(-c2n[nH]c(=O)n2-c2ccc3c(ccn3C)c2)c(O)cc1O [ganetespib],plasma protein binding,[8],high
same,sensitivity of RMS cells relative to other pediatric solid tumors,[1]; RMS cell lines and primary cultures of O-PDX cells,more sensitive
same,in vitro activity in RMS O-PDX drug screening,[1],significant in vitro activity
same,recommended Phase 2 dose (RP2D),[9]; IV once weekly for 3 weeks of a 4-week cycle,200 mg/m^2
same,estimated human total plasma AUCinf,[9]; at 200 mg/m^2,approximately 7000 hr-ng/mL
same,major adverse events,[9]; patients,diarrhea and fatigue
same,tolerability,[10],well tolerated in all groups
same,overall survival compared with placebo,[3],not different from placebo
same,increase in plasma Cmax for a 3-fold increase in dose,"[11]; 50 to 150 mg/kg IV, 10 min after injection, data not shown",~17 fold
same,half-life,[11]; plasma,2.03 h
same,half-life,[11]; tumor,8.42 h
same,murine equivalent dose (MED) providing a similar total plasma AUCinf,[11]; vs human 200 mg/m^2,12.8 mg/kg
CC(=O)c1c(C)c2cnc(Nc3ccc(N4CCNCC4)cn3)nc2n(C2CCCC2)c1=O [palbociclib],back-estimated mouse plasma Cavg,in vivo [12]; 10 mg/kg,76.9 ng/mL
same,murine equivalent dose (MED),in vivo [12]; mouse,10 mg/kg
same,CL/F,"in vivo [12]; mouse, po, 16 mg/kg",91.2 mL/min/kg
same,Kp,"in vivo [12]; mouse, po, 16 mg/kg",~6
same,half-life,"in vivo [12]; mouse, po, 16 mg/kg",2.61 h
same,"apparent terminal half-life (T1/2), literature",[13],approximately 3.4 hr
same,"estimated total plasma Cavg,ss",[14],about 85 ng/mL
same,estimated total plasma AUCtau at steady state,"[15]; patients, 125 mg PO QD",2080 ng·h/mL
same,mean plasma CL/F,"[15]; typical patient, population PK",60.2 L/h
Cc1[nH]c2ccccc2c1CCNCc1ccc(/C=C/C(=O)NO)cc1 [panobinostat],efficacy in vivo,RMS O-PDXs,failed to show efficacy in vivo
CC(=O)Nc1cccc(-n2c(=O)n(C3CC3)c(=O)c3c(Nc4ccc(I)cc4F)n(C)c(=O)c(C)c32)c1 [trametinib],mean AUC,"[16]; across genders, 2 mg PO QD, ref Ouellet et al., 2016",365 ng·h/mL
same,maximum tolerated dose (MTD),[16]; putative single agent,2 mg PO QD
same,mean plasma CL/F,"[16]; typical female patient, ref Ouellet et al., 2016",4.91 L/h
same,mean plasma CL/F,"[16]; typical male patient, ref Ouellet et al., 2016",6.19 L/h
same,Kp,in vivo [17],5.49
same,"estimated total plasma Cavg,ss",[18],about 15.1 ng/mL
